Active and inactive are the calls of the source.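 How the source made its calls: active means cytotoxic at 24 hours, with mean IC50 of 20 µM or lower; inactive means the rest.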
Tested on: CHO-XBP1 cytotoxicity, ATPlite luminescence, 24 h
Test: CHO-XBP1 cell viability loss – 24 h exposure, ATPlite luminescence, cytotoxicity control for UPR adaptive arm activator project, SAR follow-up (AID 588565)

Structure (SMILES)	IC50
Cc1nc(Nc2nc(-c3ccccc3)cc(=O)[nH]2)nc2ccccc12	> 80 µM (inactive)
Cc1cc(Br)cc(NC(=O)c2cc(-c3ccncc3)nc3ccccc23)c1	> 80 µM (inactive)
O=C(Nc1ccc(Br)c(C(F)(F)F)c1)c1cc(-c2ccncc2)nc2ccccc12	> 80 µM (inactive)
O=C(Nc1ccc(Cl)cc1)c1cc(-c2ccncc2)nc2ccccc12	64 µM (inactive)
O=C(Nc1ccc(C(F)(F)F)cc1)c1cc(-c2ccncc2)nc2ccccc12	> 80 µM (inactive)
Cc1ccc(NC(=O)c2cc(-c3ccncc3)nc3ccccc23)cc1	> 80 µM (inactive)
O=C(Nc1ccc(F)cc1)c1cc(-c2ccncc2)nc2ccccc12	> 80 µM (inactive)
